The target in the assay is T1, GzmB (Homo sapiens, UniProt P10144).
T1 construct: purchased Froelich Lab, Northshore University Health Systems Research Institute, Evanston, Ill., USA
The assay is described as follows: Inhibition of Fibronectin Cleavage by GzmB (Example D7). The class given is biochemical. The settings on record: 20 nM granzyme B, 30° C.; for inhibition at 0.62 µM: inhibitor 0.62 uM, read-out: Percent Inhibition at Inhibitor Concentration 0.62 uM; for inhibition at 5.56 µM: inhibitor 5.56 uM, read-out: Percent Inhibition at Inhibitor Concentration 5.56 uM; for inhibition at 50 µM: inhibitor 50 uM, read-out: Percent Inhibition at Inhibitor Concentration 50 uM. Here is the method: Black, 96 well high-binding assay plates (Griener Bio-one) were treated overnight at 4° C. with 40 uL of 8 ug/mL Hilyte Fluor 488 labeled Fibronectin (Cytoskeleton, Inc). After fibronectin coating, plates were washed 3 times in buffer (20 mM Tris-HCl, pH 7.4, 20 mM NaCl) then once with granzyme B assay buffer (50 mM HEPES, pH 7.5, 0.1% CHAPS). After washing, 50 uL of granzyme B assay buffer was added to each fibronectin-coated well. In a separate non-binding 96 well assay plate 5 uL of 20X inhibitor serial dilution stocks were added to 45 uL of 2.22x GzmB mix to establish inhibition (enzyme/inhibitor mixes were all prepared in granzyme B assay buffer and were incubated first at room temperature for 20 minutes, then at 30° C. for another 10 minutes). After incubation, 50 uL of this 2x enzyme/inhibitor mix was added to the corresponding coated well to initiate fibronectin cleavage (20 nM final granzyme B concentration, 8-point inhibitor dilution series starting at 50 uM). The assay was conducted at 30° C. in the TECAN plate reader (TECAN INFINITE® M1000 Pro), which was programmed to monitor the kinetic fluorescence polarization signal (filter set Ex/Em 470 nm/527 nm) with readings taken every minute, for 1 hour. Proteolytic activity was evaluated as the rate of fluorescence enhancement in the parallel emission over the linear range of the reaction. % Inhibition values were calculated from assay controls and the resulting data is shown in Table 6.

The structures appear in SMILES notation.

T1 sequence (P10144 21-247): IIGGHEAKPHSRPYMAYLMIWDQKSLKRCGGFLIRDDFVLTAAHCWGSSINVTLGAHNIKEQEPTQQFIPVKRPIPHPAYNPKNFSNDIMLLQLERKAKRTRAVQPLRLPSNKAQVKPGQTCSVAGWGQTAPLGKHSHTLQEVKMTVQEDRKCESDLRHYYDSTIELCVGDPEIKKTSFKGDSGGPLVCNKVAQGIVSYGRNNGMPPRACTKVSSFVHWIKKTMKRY

In the case of `CC[C@H](C)[C@H](NC(=O)CCC(=O)O)C(=O)NCC(=O)N1C(=O)NC[C@H]1C(=O)NCc1nn[nH]n1` [Compound C1, 4-(((2S,3S)-1-((2-((S)-5-(((2H-tetrazol-5-yl)methyl)carbamoyl)-2-oxoimidazolidin-1-yl)-2-oxoethyl)amino)-3-methyl-1-oxopentan-2-yl)amino)-4-oxobutanoic acid], the inhibition at 0.62 µM was found to be 39%, the inhibition at 5.56 µM amounted to 69% and the inhibition at 50 µM amounted to 86%.
On the same counts, the results for `CC[C@H](C)[C@H](NC(=O)CCC(=O)O)C(=O)NCC(=O)N1C(=O)N(C2CCCCC2)C[C@H]1C(=O)NCc1nn[nH]n1` [Compound C2, 4-(((2S,3S)-1-((2-((S)-5-(((2H-TETRAZOL-5-YL)METHYL)CARBAMOYL)-3-CYCLOHEXYL-2-OXOIMIDAZOLIDIN-1-YL)-2-OXOETHYL)AMINO)-3-METHYL-1-OXOPENTAN-2-YL)AMINO)-4-OXOBUTANOIC ACID] are 75%, 91% and 96%.

Values taken from patent publication US10537652B2, “Cyclic urea compounds as granzyme B inhibitors” (viDA Therapeutics Inc., priority 2014, dated 2020).
